Columns and labels:
[1] = molecular target: JAK3 (recombinant human kinase domain) (Homo sapiens, UniProt P52333); test: Determination of IC50 of Janus Kinase (JAK) inhibition, radioactive end-point 33P-ATP assay, JAK3; assay type: biochemical; conditions: ATP 1.5 uM, peptide 50 uM, 20 minutes, room temperature, read-out: IC50 h-jak3-sf21-c
Source text: Determination of IC50 of Janus Kinase (JAK) Inhibition: […]

Sequence of JAK3 (recombinant human kinase domain) (P52333 822-1111 limits assumed): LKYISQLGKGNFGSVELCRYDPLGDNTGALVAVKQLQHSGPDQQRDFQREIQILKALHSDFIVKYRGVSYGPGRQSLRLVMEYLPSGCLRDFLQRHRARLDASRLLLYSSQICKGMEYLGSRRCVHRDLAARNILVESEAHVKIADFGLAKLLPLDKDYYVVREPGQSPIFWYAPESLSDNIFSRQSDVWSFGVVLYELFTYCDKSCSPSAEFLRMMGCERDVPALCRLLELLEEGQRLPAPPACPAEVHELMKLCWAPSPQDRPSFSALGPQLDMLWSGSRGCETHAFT

Row | Compound | melting point [°C] | IC50 [1] [nM]
1 | CC(C)(C)C(=O)c1c[nH]c2ncc(-c3ccc4c(c3)NC(=O)C(C)(C)O4)nc12 [Compound I-7, 6-[7-(2,2-Dimethyl-propionyl)-5H-pyrrolo[2,3-b]pyrazin-2-yl]-2,2-dimethyl-4H-benzo[1,4]oxazin-3-one] | > 300 | 
2 | CC(C)(C)C(=O)c1c[nH]c2ncc(-c3ccc4c(c3)SCC(=O)N4)nc12 [Compound I-22, 7-[7-(2,2-Dimethyl-propionyl)-5H-pyrrolo[2,3-b]pyrazin-2-yl]-4H-benzo[1,4]thiazin-3-one] | > 300 | 
3 | CC(C)(C)C(=O)c1c[nH]c2ncc(-c3cc(N4CCCC4)ccn3)nc12 [Example 6, 2,2-Dimethyl-1-[2-(4-pyrrolidin-1-yl-pyridin-2-yl)-5H-pyrrolo[2,3-b]pyrazin-7-yl]-propan-1-one] | 260 to 263 | 
4 | CCc1cccc(-c2cnc3[nH]cc(C(=O)C(C)(C)C)c3n2)c1 [Example 9, 1-[2-(3-Ethyl-phenyl)-5H-pyrrolo[2,3-b]pyrazin-7-yl]-2,2-dimethyl-propan-1-one] | 199 to 200.1 | 
5 | CN1C(=O)COc2ccc(-c3cnc4[nH]cc(C(=O)C(C)(C)C)c4n3)cc21 [Compound I-10, 6-[7-(2,2-Dimethyl-propionyl)-5H-pyrrolo[2,3-b]pyrazin-2-yl]-4-methyl-4H-benzo[1,4]oxazin-3-one] | 277 to 278 | 
6 | CC(C)(C)C(=O)c1c[nH]c2ncc(-c3ccc4c(ccn4Cc4ccncc4)c3)nc12 [Compound I-49, 2,2-Dimethyl-1-[2-(1-pyridin-4-ylmethyl-1H-indol-5-yl)-5H-pyrrolo[2,3-b]pyrazin-7-yl]-propan-1-one] | 241 to 243 | 152
7 | CC(C)(C)C(=O)c1c[nH]c2ncc(-c3ccc4c(ccn4Cc4cccnc4)c3)nc12 [Compound I-48, 2,2-Dimethyl-1-[2-(1-pyridin-3-ylmethyl-1H-indol-5-yl)-5H-pyrrolo[2,3-b]pyrazin-7-yl]-propan-1-one] | 170 to 171 | 
8 | CC1(C(=O)c2c[nH]c3ncc(-c4ccc5c(c4)NC(=O)C(C)(C)O5)nc23)CCCCC1 [Compound I-21, 2,2-Dimethyl-6-[7-(1-methyl-cyclohexanecarbonyl)-5H-pyrrolo[2,3-b]pyrazin-2-yl]-4H-benzo[1,4]oxazin-3-one] | > 300 | 
9 | CN1CCOc2ccc(-c3cnc4[nH]cc(C(=O)C(C)(C)C)c4n3)cc21 [Compound I-8, 2,2-Dimethyl-1-[2-(4-methyl-3,4-dihydro-2H-benzo[1,4]oxazin-6-yl)-5H-pyrrolo[2,3-b]pyrazin-7-yl]-propan-1-one] | 255 to 265 | 
10 | CC(C)(C)C(=O)c1c[nH]c2ncc(-c3ccccn3)nc12 [Example 8, 2,2-Dimethyl-1-(2-pyridin-2-yl-5H-pyrrolo[2,3-b]pyrazin-7-yl)-propan-1-one] | 276 to 278 | 
11 | CC(C)(C)C(=O)c1c[nH]c2ncc(-c3ccc4c(ccn4Cc4ccccn4)c3)nc12 [Compound I-46, 2,2-Dimethyl-1-[2-(1-pyridin-2-ylmethyl-1H-indol-5-yl)-5H-pyrrolo[2,3-b]pyrazin-7-yl]-propan-1-one] | 194 to 196 | 
12 | CC(C)(C)C(=O)c1c[nH]c2ncc(-c3ccc4c(c3)NC(=O)CO4)nc12 [Compound I-9, 6-[7-(2,2-Dimethyl-propionyl)-5H-pyrrolo[2,3-b]pyrazin-2-yl]-4H-benzo[1,4]oxazin-3-one] | > 350 | 
13 | CN1CCOc2cc(-c3cnc4[nH]cc(C(=O)C(C)(C)C)c4n3)ccc21 [Compound I-3, 2,2-Dimethyl-1-[2-(4-methyl-3,4-dihydro-2H-benzo[1,4]oxazin-7-yl)-5H-pyrrolo[2,3-b]pyrazin-7-yl]-propan-1-one] | 233 to 234 | 
14 | CN1CCOc2cc(-c3cnc4[nH]cc(C(=O)C5(C)CCCCC5)c4n3)ccc21 [Compound I-39, (1-Methyl-cyclohexyl)-[2-(4-methyl-3,4-dihydro-2H-benzo[1,4]oxazin-7-yl)-5H-pyrrolo[2,3-b]pyrazin-7-yl]-methanone] | 243 to 244 | 
15 | CN1CC=C(c2c[nH]c3ccc(-c4cnc5[nH]cc(C(=O)C(C)(C)C)c5n4)cc23)CC1 [Compound I-50, 2,2-Dimethyl-1-{2-[3-(1-methyl-1,2,3,6-tetrahydro-pyridin-4-yl)-1H-indol-5-yl]-5H-pyrrolo[2,3-b]pyrazin-7-yl}-propan-1-one] | 263 to 265 | 155
16 | CC1(C(=O)c2c[nH]c3ncc(-c4ccc5[nH]ccc5c4)nc23)CCCCC1 [Compound I-52, [2-(1H-Indol-5-yl)-5H-pyrrolo[2,3-b]pyrazin-7-yl]-(1-methyl-cyclohexyl)-methanone] |  | 32.4

Results, then the molecule that gave them:

Row | melting point [°C] | IC50 [1] [nM] | Compound
17 | > 300 |  | CC(C)(C)C(=O)c1c[nH]c2ncc(-c3cc(NS(C)(=O)=O)c4cc[nH]c4c3)nc12 [Compound I-26, N-{6-[7-(2,2-Dimethyl-propionyl)-5H-pyrrolo[2,3-b]pyrazin-2-yl]-1H-indol-4-yl}-methanesulfonamide]
18 | 285 to 292 |  | CC(C)(C)C(=O)c1c[nH]c2ncc(-c3cc(NS(=O)(=O)c4ccc(N)cc4)c4cc[nH]c4c3)nc12 [Compound I-19, 4-Amino-N-{6-[7-(2,2-dimethyl-propionyl)-5H-pyrrolo[2,3-b]pyrazin-2-yl]-1H-indol-4-yl}-benzenesulfonamide]
19 | 264 to 266 |  | CC(C)(C)C(=O)c1c[nH]c2ncc(-c3cc(NS(=O)(=O)c4ccc(Cl)cc4)c4cc[nH]c4c3)nc12 [Compound I-33, 4-Chloro-N-{6-[7-(2,2-dimethyl-propionyl)-5H-pyrrolo[2,3-b]pyrazin-2-yl]-1H-indol-4-yl}-benzenesulfonamide]
20 |  | 158 | CN(c1cc(-c2cnc3[nH]cc(C(=O)C(C)(C)C)c3n2)cc2[nH]ccc12)S(=O)(=O)c1ccc(N)cc1 [Compound I-54, 4-Amino-N-{6-[7-(2,2-dimethyl-propionyl)-5H-pyrrolo[2,3-b]pyrazin-2-yl]-1H-indol-4-yl}-N-methyl-benzenesulfonamide]
21 | 305 to 307 |  | CC(C)(C)C(=O)c1c[nH]c2ncc(-c3cc(NS(=O)(=O)c4cccnc4)c4cc[nH]c4c3)nc12 [Compound I-37, Pyridine-3-sulfonic acid {6-[7-(2,2-dimethyl-propionyl)-5H-pyrrolo[2,3-b]pyrazin-2-yl]-1H-indol-4-yl}-amide]
22 | 231 to 233 |  | COc1ccc(S(=O)(=O)Nc2cc(-c3cnc4[nH]cc(C(=O)C(C)(C)C)c4n3)cc3[nH]ccc23)cc1 [Compound I-35, N-{6-[7-(2,2-Dimethyl-propionyl)-5H-pyrrolo[2,3-b]pyrazin-2-yl]-1H-indol-4-yl}-4-methoxy-benzenesulfonamide]
23 | 275 to 285 |  | CC(C)(C)C(=O)c1c[nH]c2ncc(-c3cc(NS(=O)(=O)c4ccccc4)c4cc[nH]c4c3)nc12 [Compound I-27, N-{6-[7-(2,2-Dimethyl-propionyl)-5H-pyrrolo[2,3-b]pyrazin-2-yl]-1H-indol-4-yl}-benzenesulfonamide]
24 | 295 to 297 |  | CC(C)(C)C(=O)c1c[nH]c2ncc(-c3cc(NS(=O)(=O)c4ccc(F)cc4)c4cc[nH]c4c3)nc12 [Compound I-34, N-{6-[7-(2,2-Dimethyl-propionyl)-5H-pyrrolo[2,3-b]pyrazin-2-yl]-1H-indol-4-yl}-4-fluoro-benzenesulfonamide]

From patent US7932254B2, “Pyrrolopyrazine kinase inhibitors” (Roche Palo Alto, priority 2008, dated 2011)
